Like-named read-outs stand apart in the source and are kept apart here.

One experiment concerns the target VHR (Homo sapiens, UniProt P51452). In words: VHR phosphatase inhibition, general phosphatase assay using para-nitrophenylphosphate. As to conditions: read-out: IC50 Target VHR. Format: biochemical. The source says: (§1) Assays protocols for the other enzymes mentioned herein (MtPTPA, PP1, VHR, PTP1B) are disclosed in Schweizer R A S, Atanasov, G A, Frey B M, and Odermatt A, Mol. Cell. Endocrinol. 2003, 212, 41-49 and Barratte, B., Meijer L., Galaktionov K. & Beach D, Anticancer Res. 1992, 12, 873-880. For determination of the phosphatase activity, a general phosphatase assay using para-nitrophenylphosphate was applied.

The target of another experiment is T1, PTP1B (Homo sapiens, UniProt P18031).
T1 sequence (P18031 1-435): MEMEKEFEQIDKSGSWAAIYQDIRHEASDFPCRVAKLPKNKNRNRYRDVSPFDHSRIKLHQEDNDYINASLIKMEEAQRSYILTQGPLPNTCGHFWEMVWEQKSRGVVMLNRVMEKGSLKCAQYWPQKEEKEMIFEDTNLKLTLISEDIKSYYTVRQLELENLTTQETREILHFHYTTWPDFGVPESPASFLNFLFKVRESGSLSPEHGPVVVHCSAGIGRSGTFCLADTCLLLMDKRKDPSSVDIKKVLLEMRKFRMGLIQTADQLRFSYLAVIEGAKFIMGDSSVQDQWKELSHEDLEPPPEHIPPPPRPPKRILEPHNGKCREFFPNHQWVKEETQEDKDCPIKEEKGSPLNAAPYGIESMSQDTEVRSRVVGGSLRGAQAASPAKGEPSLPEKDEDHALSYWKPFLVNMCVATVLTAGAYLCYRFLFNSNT
In words: PTP1B phosphatase inhibition, general phosphatase assay using para-nitrophenylphosphate. The class given is biochemical. As to conditions: read-out: IC50 Target PTP1B.
From the text: as §1

For a further experiment, the target named is T2, Cdc25A (Homo sapiens, UniProt P30304).
T2 sequence (P30304 1-524): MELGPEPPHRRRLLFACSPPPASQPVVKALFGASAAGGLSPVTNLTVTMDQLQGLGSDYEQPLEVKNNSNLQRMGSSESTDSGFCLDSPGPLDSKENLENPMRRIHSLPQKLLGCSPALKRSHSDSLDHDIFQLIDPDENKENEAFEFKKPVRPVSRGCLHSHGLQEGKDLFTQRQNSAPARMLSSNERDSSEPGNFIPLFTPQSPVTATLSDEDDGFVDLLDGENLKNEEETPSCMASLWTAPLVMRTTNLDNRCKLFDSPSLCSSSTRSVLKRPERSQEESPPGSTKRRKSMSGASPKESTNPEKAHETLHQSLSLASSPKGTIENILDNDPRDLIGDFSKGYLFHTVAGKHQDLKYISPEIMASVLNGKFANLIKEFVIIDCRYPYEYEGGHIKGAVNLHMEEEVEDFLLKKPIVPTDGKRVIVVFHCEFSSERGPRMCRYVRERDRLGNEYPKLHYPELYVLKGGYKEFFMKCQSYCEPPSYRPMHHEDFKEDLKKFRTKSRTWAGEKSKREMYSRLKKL
The experiment in a line: Cdc25A phosphatase inhibition. Format: biochemical. The source says: (§2) Assay protocols for Cdc25A, 11βHSD1, 11βHSD2, and AChE are described in detain in the publication of Koch M A, Wittenberg L O, Basu S, Jeyaraj D A, Gourzoulidou E, Reinecke K, Odermatt A, Waldmann H (Proc. Natl. Acad. Sci. U.S.A. 2004 Nov. 30; 101(48):16721-6) and in Koch M A et al., Proc. Natl. Acad. Sci. U.S.A. 2005 Nov. 29; 102 (48):17272-7.

The target in another experiment is 11beta-HSD1 (Homo sapiens, UniProt P28845). In words: biochemical. As to conditions: read-out: IC50 Target 11beta-HSD1.
Chain of 11beta-HSD1 (P28845 whole entry): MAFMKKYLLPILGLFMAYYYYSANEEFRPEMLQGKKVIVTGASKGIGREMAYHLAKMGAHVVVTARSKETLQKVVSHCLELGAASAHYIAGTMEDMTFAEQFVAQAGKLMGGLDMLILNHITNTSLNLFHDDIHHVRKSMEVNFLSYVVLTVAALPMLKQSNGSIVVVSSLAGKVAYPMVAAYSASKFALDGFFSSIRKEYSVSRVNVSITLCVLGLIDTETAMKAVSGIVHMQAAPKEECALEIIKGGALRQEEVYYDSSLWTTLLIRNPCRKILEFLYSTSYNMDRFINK
From the text: as §2

Chain of VHR (P51452 whole entry, species assumed): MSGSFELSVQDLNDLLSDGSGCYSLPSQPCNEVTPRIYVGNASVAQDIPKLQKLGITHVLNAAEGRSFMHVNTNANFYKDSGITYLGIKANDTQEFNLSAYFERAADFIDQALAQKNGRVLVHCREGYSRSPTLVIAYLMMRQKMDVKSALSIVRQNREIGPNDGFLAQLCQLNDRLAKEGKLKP

For orientation: IC50 means the midpoint of a concentration-inhibition curve. For `CC1=C2CCC[C@H](O)[C@@]2(C)C/C(=C\c2ccoc2)C1=O` [Compound 8, (3E,4aS,5S)-3-[(Furan-3-yl)methylen]-4,4a,5,6,7,8-hexahydro-5-hydroxy-1,4a-dimethylnaphthalen-2(3H)-one], the results for the IC50 at VHR, on PTP1B and at Cdc25A (read-out: IC50 Target Cdc25A) were less than 10 µM, 10 to 50 µM and 10 to 50 µM, respectively.
As to `CC1=C2CCC[C@H](O)[C@@]2(C)C/C(=C\c2cccnc2)C1=O` [Compound 10, (3E,4aS,5S)-4,4a,5,6,7,8-Hexahydro-5-hydroxy-1,4a-dimethyl-3-[(pyridin-3-yl)methylen]naphthalen-2(3H)-one], the IC50 at 11beta-HSD1 is less than 10 µM.
In the case of `CSc1ccc(/C=C2\C[C@@]3(C)C(=C(C)C2=O)CCC[C@@H]3O)cc1` [Compound 11, (3E,4aS,5S)-3-[4-(Methylthio)benzyliden]-4,4a,5,6,7,8-hexahydro-5-hydroxy-1,4a-dimethylnaphthalen-2(3H)-one], on 11beta-HSD1, the IC50 is less than 10 µM.
Take `COc1ccc(/C=C2\C[C@@]3(C)C(=C(C)C2=O)CCC[C@@H]3O)c(O)c1` [Compound 14, (3E,4aS,5S)-3-(2-Hydroxy-4-methoxybenzyliden)-4,4a,5,6,7,8-hexahydro-5-hydroxy-1,4a-dimethylnaphthalen-2(3H)-one]: the IC50 at 11beta-HSD1 is less than 10 µM.
`CCCCCCCCCCC/C=C1\C[C@@]2(C)C(=C(C)C1=O)CCC[C@@H]2O` [Compound 22, (3E,4aS,5S)-3-Dodecyliden-4,4a,5,6,7,8-hexahydro-5-hydroxy-1,4a-dimethylnaphthalen-2(3H)-one]: at 11beta-HSD1, the IC50 was less than 10 µM.
Turning to `CCc1ccc(/C=C2\C[C@@]3(C)C(=C(C)C2=O)CCC[C@@H]3O)c(C)c1` [Compound 23, (3E,4aS,5S)-3-(4-Ethyl-2-methylbenzyliden)-4,4a,5,6,7,8-hexahydro-5-hydroxy-1,4a-dimethylnaphthalen-2(3H)-one], on 11beta-HSD1, the IC50 was less than 10 µM.
As for `CC1=C2CCC[C@H](O)[C@@]2(C)C/C(=C\c2ccc(C#CC(C)OC(C)(C)C)cc2)C1=O` (stereo partly drawn) [Compound 38, (3E,4aS,5S)-3-[4-(3-tert-Butoxybut-1-inyl)benzyliden]-4,4a,5,6,7,8-hexahydro-5-hydroxy-1,4a-dimethylnaphthalen-2(3H)-one], the IC50 at VHR was 10 to 50 µM; on PTP1B, 10 to 50 µM; at Cdc25A (read-out: IC50 Target Cdc25A), less than 10 µM.
As to `CCCCC#Cc1ccc(/C=C2\C[C@@]3(C)C(=C(C)C2=O)CCC[C@@H]3O)cc1` [Compound 40, (3E,4aS,5S)-3-[4-(Hex-1-inyl)benzyliden]-4,4a,5,6,7,8-hexahydro-5-hydroxy-1,4a-dimethyl-naphthalen-2(3H)-one], the IC50 at VHR, on PTP1B and at Cdc25A (read-out: IC50 Target Cdc25A) was 10 to 50 µM each time.
On to `CC1=C2CCC[C@H](O)[C@@]2(C)C/C(=C\c2ccc(C#CC(C)(C)O)cc2)C1=O` [Compound 44, (3E,4aS,5S)-3-[4-(3-Hydroxy-3-methylbut-1-inyl)benzyliden]-4,4a,5,6,7,8-hexahydro-5-hydroxy-1,4a-dimethyl-naphthalen-2(3H)-one], for which the IC50 at VHR, on PTP1B and at Cdc25A (read-out: IC50 Target Cdc25A) was 10 to 50 µM throughout.
Regarding `CCOC(C#Cc1ccc(/C=C2\C[C@@]3(C)C(=C(C)C2=O)CCC[C@@H]3O)cc1)OCC` [Compound 46, (3E,4aS,5S)-3-[4-(3,3-Diethoxyprop-1-inyl)benzyliden]-4,4a,5,6,7,8-hexahydro-5-hydroxy-1,4a-dimethylnaphthalen-2(3H)-on], the results for the IC50 at VHR, on PTP1B and on Cdc25A (read-out: IC50 Target Cdc25A) were 10 to 50 µM, 10 to 50 µM and less than 10 µM, respectively.
`CC1=C2CCC[C@H](O)[C@@]2(C)C/C(=C\c2ccc(C#CCN(C)C)cc2)C1=O` [Compound 51, (3E,4aS,5S)-3-{4-[3-(Dimethylamino)prop-1-inyl]benzyliden}-4,4a,5,6,7,8-hexahydro-5-hydroxy-1,4a-dimethylnaphthalen-2(3H)-one]: the IC50 at VHR is 10 to 50 µM; on PTP1B, 10 to 50 µM; at Cdc25A (read-out: IC50 Target Cdc25A), less than 10 µM.
In the case of `CC1=C2CCC[C@H](O)[C@@]2(C)C/C(=C\C=C\c2ccco2)C1=O` [Compound 60, (3E,4aS,5S)-3-[(E)-3-(Furan-2-yl)allyliden]-4,4a,5,6,7,8-hexahydro-5-hydroxy-1,4a-dimethylnaphthalen-2(3H)-one], the IC50 on VHR, on PTP1B and at Cdc25A (read-out: IC50 Target Cdc25A) was 10 to 50 µM each time.
For the compound `C[C@]12C/C(=C\c3ccc(C#C[Si](C)(C)C)cc3)C(=O)C=C1CCC[C@@H]2O` [Compound 137, (3E,4aS,5S)-3-{4-[2-(Trimethylsilyl)ethinyl]benzyliden}-4,4a,5,6,7,8-hexahydro-5-hydroxy-4a-methylnaphthalen-2(3H)-one], the IC50 at VHR was 10 to 50 µM; against Cdc25A, less than 10 µM.
Regarding `C[C@]12C/C(=C\c3ccc(C#CC4(O)CCCCC4)cc3)C(=O)C=C1CCC[C@@H]2O` [Compound 138, (3E,4aS,5S)-3-{4-[2-(1-Hydroxycyclohexyl)ethinyl]benzyliden}-4,4a,5,6,7,8-hexahydro-5-hydroxy-4a-methylnaphthalen-2(3H)-one], the values for the IC50 at VHR and at Cdc25A (read-out: IC50 Target Cdc25A) were 10 to 50 µM and less than 10 µM, respectively.
Regarding `CCCCCCCCCCCCCCC#Cc1ccccc1/C=C1\C[C@@]2(C)C(=CC1=O)CCC[C@@H]2O` [Compound 332, (3E,4aS,5S)-3-[2-(Hexadec-1-inyl)benzyliden]-4,4a,5,6,7,8-hexahydro-5-hydroxy-4a-methylnaphthalen-2(3H)-one], on Cdc25A (read-out: IC50 Target Cdc25A), the IC50 lay in the range of 10 to 50 µM.
On to `COCC#Cc1ccccc1/C=C1\C[C@@]2(C)C(=CC1=O)CCC[C@@H]2O` [Compound 334, (3E,4aS,5S)-3-[2-(3-Methoxyprop-1-inyl)benzyliden]-4,4a,5,6,7,8-hexahydro-5-hydroxy-4a-methylnaphthalen-2(3H)-one], for which the IC50 at Cdc25A (read-out: IC50 Target Cdc25A) lay within 10 to 50 µM.
With `COCC#Cc1cccc(/C=C2\C[C@@]3(C)C(CCC[C@@H]3O)C(C)C2NC2CCCCC2)c1` (stereo partly drawn) [Compound 346, (E,1S,8aS)-7-[3-(3-Methoxyprop-1-inyl)benzyliden]-6-(cyclohexylamino)-decahydro-5,8a-dimethylnaphthalen-1-ol], the IC50 at Cdc25A (read-out: IC50 Target Cdc25A) was 10 to 50 µM.
As to `C=CC[C@]12C(CCC[C@@H]1O)C(C)C(=O)/C(=C/c1cccc(C#CCOC)c1)[C@@H]2C` (stereo partly drawn) [Compound 349, (E,4R,4aR,5S)-3-[3-(3-Methoxyprop-1-inyl)benzyliden]-4a-allyl-octahydro-5-hydroxy-1,4-dimethylnaphthalen-2(1H)-one], the IC50 on Cdc25A (read-out: IC50 Target Cdc25A) was in the range of 10 to 50 µM.
Turning to `CC1C=CCC2CCC(=Cc3ccco3)C(=O)C12` (stereo not drawn) [Compound 394, 2-Furan-2-ylmethylene-8-methyl-3,4,4a,5,8,8a-hexahydro-2H-naphthalen-1-one], the IC50 was 10 to 50 µM on VHR, less than 10 µM on PTP1B and 10 to 50 µM on Cdc25A (read-out: IC50 Target Cdc25A).
As for `CC1(Cc2cccc(I)c2)C(=O)CC[C@@]2(C)C1CCC[C@@H]2O` (stereo partly drawn) [Compound 398, (4aS,5S)-5-Hydroxy-1-(3-iodo-benzyl)-1,4a-dimethyl-octahydro-naphthalen-2-one], the IC50 on VHR, at PTP1B and on Cdc25A (read-out: IC50 Target Cdc25A) was 10 to 50 µM in each case.
As for `CC1=C2CCCC(=O)[C@@]2(C)CC/C1=C1/C=CC(=O)O1` [Compound 401, (2E,4aS)-5-(1,4a-Dimethyl-5-oxo-4,4a,5,6,7,8-hexahydro-3H-naphthalen-2-ylidene)-5H-furan-2-one], the IC50 on VHR and at Cdc25A (read-out: IC50 Target Cdc25A) was 10 to 50 µM each time.
With `CCCCC1(C)C(=O)CC[C@@]2(C)C1CCC[C@@H]2O` (stereo partly drawn) [Compound 414, (4aS,5S)-1-Butyl-5-hydroxy-1,4a-dimethyl-1-octahydro-naphthalen-2-one], the IC50 on PTP1B and at Cdc25A (read-out: IC50 Target Cdc25A) was 10 to 50 µM throughout.
Take `CC1=C2CCCC3(OCCO3)C2(C)CC/C1=C1/C=CC(=O)O1` (stereo not drawn) [Compound 415, (5E)-5-(5′,8a′-dimethyl-3′,4′,8′,8a′-tetrahydro-2′H-spiro[1,3-dioxolane-2,1′-naphthalen]-6′(7′H)-ylidene)furan-2(5H)-one]: the IC50 on Cdc25A (read-out: IC50 Target Cdc25A) was in the range of 10 to 50 µM.

The values above are taken from US20090062401A1, “DECALINE-DERIVED COMPOUNDS AS […] ACTIVE AGENTS” (UNIVERSITAT DORTMUND, priority 2004, published 2009).
